The text below walks through data of patent US20250051409A1, “MODULATORS OF PHOSPHATIDYLSERlNE DECARBOXYLASE AND USE THEREOF” (THE NATIONAL INSTITUTE FOR BIOTECHNOLOGY IN THE NEGEV LTD., priority 2021, published 2025).

Square brackets hold non-standard residues; d marks the D form. Peptide text beside a SMILES is read from it. Dmt = Cc1cc(O)cc(C)c1C[C@H](N)C(=O)O; Orn = NCCC[C@H](N)C(=O)O A value given as a limit tells only on which side of the number the result lay.

The subject of this test is A549 lung cancer cell. The class given is cell-based, human. As to conditions: 24 h. The method, then:
(B) Inhibition of PSD activity by the 2F3 (●) or 1C11 (◯) peptide. PSD activity was measured using the DSB-3 method. (C-E) Cell proliferation inhibition following incubation of A549 cells with the indicated mitochondria- or nuclear-targeted peptides for 24 h in a serum-free medium, and cell proliferation was assayed using the SRB method. Results are the means±SEM (n=3). (F) A549 cells were incubated for 90 min with 5 μM of the mitochondria- or nuclear targeted FITC-labelled peptides, immunostained with anti-SMAC antibodies and with DAPI and visualized by confocal microscope for subcellular localization. Arrows indicates nuclear (n=3). Scale bars represent 20
(A) A549 cells were incubated with the indicated concentration of 1C11-HTRA2-derived peptide targeted to the mitochondrion with the targeting sequence added to the N-terminus (N-Ter) or the C-terminus (C-Ter). (B) Mitochondrion targeted 1C11-HTRA2-derived peptide was modified by replacing the three amino acids in the C or the N-terminus of the peptide, or all amino acids in the peptide with the D-confirmation of the amino acid (underlined amino acids)). Following 24 h incubation in a serum-free medium, cell proliferation was assayed using the SRB method. (C) The concentration required for 50% inhibition of cell proliferation (IC50) is presented. Results are the means±SEM (n=3).
A549 (human lung adenocarcinoma epithelial cell), HEK-293T (human embryonic kidney), H1563/CRL-5875 (non-small cell lung cancer adenocarcinoma), H-358 (bronchioalveolar carcinoma), HaCaT (spontaneously transformed aneuploid immortal human skin keratinocyte), and WI-38 (fibroblast-like fetal lung cell) cell lines were purchased from the American Type Culture Collection (ATCC) (Manassas, VA), and were maintained as per ATCC instructions. Cells were maintained in ATCC recommended medium at 37° C. in an incubator with 5% CO2. Cell lines were routinely tested for Mycoplasma contamination. For SMAC overexpression, cells were seeded (200,000 cells/well) on 6-well culture plates and allowed to adhere overnight. These adhered cells were transfected with PVMV3.1-SMAC or empty vector using the JetPRIME transfection reagent (Illkirch, France), according to the manufacturers' instructions. Medium was changed 6 h post transfection, and cells were harvested 48 h post transfection.
Cells were seeded in 96-well cell culture plates (8,000/well) and allowed to grow for 48 h. After washing with PBS, cells were fixed with 10% trichloroacetic acid, and stained with SRB for 20 min. Excess SRB were removed, and cells were washed with 1% acetic acid. SRB extraction was done using 100 mM Tris-base, and absorbance at 510 nm was determined using an Infinite M1000 plate reader (Tecan, Mannedorf, Switzerland).
`Cc1cc(O)cc(C)c1C[C@H](NC(=O)[C@H](N)CCCNC(=N)N)C(=O)N[C@@H](CCCN)C(=O)N[C@@H](Cc1ccccc1)C(=O)N[C@@H](C)C(=O)N[C@@H](CC(C)C)C(=O)N[C@@H](CC(C)C)C(=O)N[C@H](C(=O)N[C@@H](CO)C(=O)NCC(=O)N[C@H](C(=O)N[C@@H](CO)C(=O)N[C@@H](CC(=O)O)C(=O)N1CCC[C@H]1C(=O)N[C@@H](CCCNC(=N)N)C(=O)N[C@@H](C)C(=O)N[C@@H](CCCNC(=N)N)C(=O)N[C@H](C(=O)N[C@H](C(=O)N[C@@H](Cc1ccc(O)cc1)C(=O)NCC(=O)N[C@H](C(=O)N1CCC[C@H]1C(=O)N[C@@H](CO)C(=O)N[C@@H](CC(C)C)C(=O)N[C@@H](Cc1c[nH]c2ccccc12)C(=O)N[C@@H](C)C(=O)N[C@@H](CCCNC(=N)N)C(=O)N[C@@H](CC(C)C)C(=O)O)[C@@H](C)O)[C@@H](C)O)C(C)C)[C@@H](C)O)[C@@H](C)O` [D-Arg-Dmt-Orn-Phe-1C11] (H-[dR][Dmt][Orn]FALLTSGTSDPRARVTYGTPSLWARL-OH; N-terminus and C-terminus assumed) had an IC50 of 89.3 ± 5.49 µM. In the case of `CC[C@H](C)[C@H](NC(=O)[C@@H](NC(=O)[C@H](CC(N)=O)NC(=O)[C@H](C)NC(=O)[C@H](CCCCN)NC(=O)[C@H](CC(C)C)NC(=O)[C@H](CC(C)C)NC(=O)[C@H](CC(N)=O)NC(=O)[C@H](CC(=O)O)NC(=O)[C@H](CC(C)C)NC(=O)[C@@H](NC(=O)[C@@H]1CCCN1C(=O)[C@H](CC(C)C)NC(=O)[C@@H](NC(=O)[C@H](CS)NC(=O)[C@@H](NC(=O)[C@H](CC(C)C)NC(=O)[C@H](CCC(N)=O)NC(=O)[C@H](CCC(N)=O)NC(=O)[C@H](Cc1ccccc1)NC(=O)[C@H](Cc1ccccc1)NC(=O)[C@H](CCCN)NC(=O)[C@H](Cc1c(C)cc(O)cc1C)NC(=O)[C@H](N)CCCNC(=N)N)[C@@H](C)O)C(C)C)[C@@H](C)CC)C(C)C)C(=O)N[C@@H](CC(N)=O)C(=O)N[C@@H](CCCCN)C(=O)N[C@@H](CCC(N)=O)C(=O)N[C@@H](CCC(=O)O)C(=O)N[C@@H](Cc1c[nH]cn1)C(=O)O` [D-Arg-Dmt-Orn-Phe-1E14] (H-[dR][Dmt][Orn]FFQQLTCVLPILDNLLKANVINKQEH-OH; N-terminus and C-terminus assumed) it was above 100 µM.

On to `Cc1cc(O)cc(C)c1C[C@H](NC(=O)[C@H](N)CCCNC(=N)N)C(=O)N[C@@H](CCCN)C(=O)N[C@@H](Cc1ccccc1)C(=O)N1CCC[C@H]1C(=O)N[C@@H](CC(N)=O)C(=O)N[C@@H](CCC(N)=O)C(=O)N[C@@H](CO)C(=O)N[C@@H](CO)C(=O)N[C@@H](CCCNC(=N)N)C(=O)N[C@@H](C)C(=O)N[C@@H](Cc1ccccc1)C(=O)N[C@@H](CCC(N)=O)C(=O)NCC(=O)N[C@H](C(=O)N[C@@H](CC(=O)O)C(=O)N[C@@H](Cc1c[nH]cn1)C(=O)N[C@@H](CO)C(=O)N[C@@H](CO)C(=O)N[C@@H](CC(=O)O)C(=O)N[C@@H](CC(C)C)C(=O)N[C@@H](C)C(=O)N[C@@H](Cc1ccccc1)C(=O)N[C@@H](CC(=O)O)C(=O)N[C@@H](Cc1ccccc1)C(=O)N[C@@H](CC(C)C)C(=O)N[C@@H](CO)C(=O)N[C@@H](CCC(N)=O)C(=O)N[C@@H](CCC(N)=O)C(=O)O)[C@@H](C)O` [D-Arg-Dmt-Orn-Phe-2I8] (H-[dR][Dmt][Orn]FPNQSSRAFQGTDHSSDLAFDFLSQQ-OH; N-terminus and C-terminus assumed), for which half-maximal inhibition (IC50) required 66.8 ± 4.7 µM.

`CC[C@H](C)[C@H](NC(=O)[C@@H]1CCCN1C(=O)[C@H](CO)NC(=O)[C@H](CO)NC(=O)[C@@H](NC(=O)[C@H](CO)NC(=O)[C@H](CC(C)C)NC(=O)[C@H](C)NC(=O)[C@H](Cc1ccccc1)NC(=O)[C@H](CCCN)NC(=O)[C@H](Cc1c(C)cc(O)cc1C)NC(=O)[C@H](N)CCCNC(=N)N)[C@@H](C)O)C(=O)N1CCC[C@H]1C(=O)N[C@@H](CO)C(=O)N[C@H](C(=O)N1CCC[C@H]1C(=O)N[C@@H](CCC(N)=O)C(=O)N[C@@H](CO)C(=O)N[C@@H](CCC(N)=O)C(=O)N[C@@H](C)C(=O)N[C@@H](CCC(N)=O)C(=O)N1CCC[C@H]1C(=O)N[C@@H](CCC(N)=O)C(=O)N[C@H](C(=O)NCC(=O)N[C@@H](CO)C(=O)NCC(=O)N[C@@H](C)C(=O)N[C@@H](CO)C(=O)O)[C@@H](C)O)C(C)C` [H-(D-Arg)-Dmt-Orn-Phe-2F3] (H-[dR][Dmt][Orn]FALSTSSPIPSVPQSQAQPQTGSGAS-OH; C-terminus assumed) yielded an IC50 above 100 µM.

In turn, `CC(C)C[C@H](NC(=O)[C@H](CCCNC(=N)N)NC(=O)[C@H](C)NC(=O)[C@H](Cc1c[nH]c2ccccc12)NC(=O)[C@H](CC(C)C)NC(=O)[C@H](CO)NC(=O)[C@@H]1CCCN1C(=O)[C@@H](NC(=O)CNC(=O)[C@H](Cc1ccc(O)cc1)NC(=O)[C@@H](NC(=O)[C@@H](NC(=O)[C@H](CCCNC(=N)N)NC(=O)[C@H](C)NC(=O)[C@H](CCCNC(=N)N)NC(=O)[C@@H]1CCCN1C(=O)[C@H](CC(=O)O)NC(=O)[C@H](CO)NC(=O)[C@@H](NC(=O)CNC(=O)[C@H](CO)NC(=O)[C@@H](NC(=O)[C@H](CC(C)C)NC(=O)[C@H](CC(C)C)NC(=O)[C@H](C)NC(=O)[C@H](CCCCN)NC(=O)[C@H](CCCNC(=N)N)NC(=O)[C@@H](CCCNC(=N)N)NC(=O)[C@@H](N)CCCNC(=N)N)[C@@H](C)O)[C@@H](C)O)C(C)C)[C@@H](C)O)[C@@H](C)O)C(=O)O` [R-{D-Arg}-RK-1C11] (H-R[dR]RKALLTSGTSDPRARVTYGTPSLWARL-OH; N-terminus and C-terminus assumed) showed an IC50 of 66.5 ± 3.9 µM.

In the case of `CC[C@H](C)[C@H](NC(=O)[C@@H](NC(=O)[C@H](CC(N)=O)NC(=O)[C@H](C)NC(=O)[C@H](CCCCN)NC(=O)[C@H](CC(C)C)NC(=O)[C@H](CC(C)C)NC(=O)[C@H](CC(N)=O)NC(=O)[C@H](CC(=O)O)NC(=O)[C@H](CC(C)C)NC(=O)[C@@H](NC(=O)[C@@H]1CCCN1C(=O)[C@H](CC(C)C)NC(=O)[C@@H](NC(=O)[C@H](CS)NC(=O)[C@@H](NC(=O)[C@H](CC(C)C)NC(=O)[C@H](CCC(N)=O)NC(=O)[C@H](CCC(N)=O)NC(=O)[C@H](Cc1ccccc1)NC(=O)[C@H](CCCCN)NC(=O)[C@H](CCCNC(=N)N)NC(=O)[C@@H](CCCNC(=N)N)NC(=O)[C@@H](N)CCCNC(=N)N)[C@@H](C)O)C(C)C)[C@@H](C)CC)C(C)C)C(=O)N[C@@H](CC(N)=O)C(=O)N[C@@H](CCCCN)C(=O)N[C@@H](CCC(N)=O)C(=O)N[C@@H](CCC(=O)O)C(=O)N[C@@H](Cc1c[nH]cn1)C(=O)O` [R-{D-Arg}-RK-1E14] (H-R[dR]RKFQQLTCVLPILDNLLKANVINKQEH-OH; N-terminus and C-terminus assumed), the IC50 was above 100 µM. Compound `CC[C@H](C)[C@H](NC(=O)[C@@H]1CCCN1C(=O)[C@H](CO)NC(=O)[C@H](CO)NC(=O)[C@@H](NC(=O)[C@H](CO)NC(=O)[C@H](CC(C)C)NC(=O)[C@H](C)NC(=O)[C@H](CCCCN)NC(=O)[C@H](CCCNC(=N)N)NC(=O)[C@@H](CCCNC(=N)N)NC(=O)[C@@H](N)CCCNC(=N)N)[C@@H](C)O)C(=O)N1CCC[C@H]1C(=O)N[C@@H](CO)C(=O)N[C@H](C(=O)N1CCC[C@H]1C(=O)N[C@@H](CCC(N)=O)C(=O)N[C@@H](CO)C(=O)N[C@@H](CCC(N)=O)C(=O)N[C@@H](C)C(=O)N[C@@H](CCC(N)=O)C(=O)N1CCC[C@H]1C(=O)N[C@@H](CCC(N)=O)C(=O)N[C@H](C(=O)NCC(=O)N[C@@H](CO)C(=O)NCC(=O)N[C@@H](C)C(=O)N[C@@H](CO)C(=O)O)[C@@H](C)O)C(C)C` [R-{D-Arg}-RK-2F3] (H-R[dR]RKALSTSSPIPSVPQSQAQPQTGSGAS-OH; N-terminus and C-terminus assumed) returned an IC50 of 28.9 ± 5.2 µM.

As usually defined, the IC50 is the point on the concentration scale where inhibition reaches its midpoint. Read a high IC50 as weaker potency.
